Measured values from PMC5124248, “Antitumor activity of TY-011 against gastric cancer by inhibiting Aurora A, Aurora B and VEGFR2 kinases” (Journal of Experimental & Clinical Cancer Research : CR, 2016).

System: human MGC-803 xenograft
Assay: Antitumor activity in vivo, MGC-803 xenograft in nude mice
Set-up: species or system BALB/c nu/nu mice
Conditions: 50 mg/kg intraperitoneally twice a week
Experimental: The animals were housed in specific pathogen-free (SPF) conditions at Key Laboratory of Brain Functional Genomics, Ministry of Education, and were acclimatized for a week prior to use. […] When the tumors reached a mean group size of 100 ~ 150 mm^3, the mice were randomized into control and treatment groups to receive treatment accordingly. […] The tumor growth was recorded with the measurement of length (L) and width (W) by caliper every other day, and calculated as tumor volume (V) = L × W^2/2. Meanwhile, the body weights of mice were recorded. The tumor volume at day n was expressed as relative tumor volume (RTV) according to the following formula: RTV% = (TVn/TV0) ×100%, where TVn is the tumor volume at day n and TV0 is the tumor volume at day 0. The therapeutic effect of treatment was calculated with formula T/C (%) = mean RTV of the treated group/mean RTV of the control group × 100%. […] The tumor regression of individual mouse was defined as the tumor volume at the end was less than the tumor volume when treatment was initiated.

Compound: CCc1c2c(nc3ccc(OC(=O)N4CCC(N5CCCCC5)CC4)cc13)-c1cc3c(c(=O)n1C2)COC(=O)[C@]3(O)CC [Irinotecan, reference compound]
- T/C (%): 8.04%
- Inhibition rate (%) (by tumor weight): 96.2%
- Body weight (g) End (mean ± SEM): 21.4 ± 0.2 g
- Tumor weight (mean ± SEM, control 0.79 g): 0.03 ± 0.01 g
